In patent US9487561B2, “Biologically active complex and its preparation” (HAMLET PHARMA AB, priority 2010, dated 2016):

Legend:
Format in all cases: cell-based, human
[1] = system: p38, HSP27, ERK1/2 in kidney and lung carcinoma cells; experiment: MAPK phosphorylation (phospho-MAPK antibody arrays, Western blot); details: for effect of ion channel inhibitor on suppression of p-ERK1/2 phosphorylation by HAMLET / effect of ion channel inhibitor on HAMLET-induced p38 phosphorylation: lung carcinoma cells; for effect of ion channel inhibitor on HAMLET-induced p38 phosphorylation: 30 minutes pretreatment, HAMLET 21 and 35 μM, 1 hour; for phosphorylation of p38: Western blot
Text: Equal volumes of lysates were separated by SDS-PAGE on 4-12% Bis-Tris gels (Invitrogen) and blotted onto PVDF membranes. For other Western blots, 200,000 cells were allowed to adhere overnight in a 6-well plate. After HAMLET treatment the cells were washed with PBS and lysed in M-PER lysis buffer (Pierce) containing Complete protease inhibitor cocktail and PhosSTOP phosphatase inhibitor cocktail (both from Roche). The detached cells were collected by centrifugation. The lysates were cleared by centrifugation and protein concentrations were measured using the DC Protein Assay (Bio-Rad Laboratories, Hercules, Calif.). Equal amounts of protein were separated by SDS-PAGE on 4-12% Bis-Tris gels (Invitrogen) and blotted onto PVDF membranes (GE Healthcare). Membranes were saturated with BSA (GAPDH) or nonfat dry milk (phospho-p38, p38, phospho-ERK1/2, ERK1/2) and incubated with anti-p38, anti-phospho-p38, anti-ERK1/2, anti-phospho-(Thr202/Tyr204)-p44/42 (all 1:500-1000, Cell Signaling Technology), anti-ATF6 (1:1000, IMG-273, Imgenex), anti-phospho-eIF2α (Ser51), (1:500, Cell Signaling Technology) or anti-GAPDH (1:3000-5000, Novus Biologicals) antibodies followed by horseradish peroxidase-conjugated anti-rabbit (1:1000, DakoCytomation, Glostrup, Denmark) or anti-mouse (1:40000-50000, Novus Biologicals) antibodies for staining. Bound antibodies were detected with ECL Plus Western Blotting Reagent (GE Healthcare, Little Chalfont, UK) and GelDoc equipment (Bio-Rad Laboratories, Hercules, Calif.). If required, membranes were stripped with Restore Western Blot Stripping Buffer (Pierce, Rockford, Ill.), blocked and reprobed with new antibodies. MAP kinase phosphorylation was analyzed on a Human Phospho-MAPK array (Proteome Profiler Array, R&D Systems) as per the manufacturer's instruction. Band and spot intensities were quantified using ImageJ (Abramoff et al., July 2004, Biophotonics International). Cytokine quantification (IL6, IL8, TNFα) was performed on an […] 1000 immunoassay system (Siemens Diagnostics).
P38 MAPKs are activated by dual phosphorylation on conserved threonine and tyrosine residues by MKK3/6 and when phosphorylated, a wide variety of effector proteins, including MAPKAPK2 kinases, HSP27 chaperones and ATF2 and CHOP transcription factors become active (Cuenda et al., 2007, Biochimica et Biophysica Acta 1773: 1358-1375).

[2] = system: A549 lung carcinoma cells; experiment: cell death assay (trypan blue exclusion, ATP levels); details: 24 hours, control cells without inhibitor or pretreated with inhibitor
[3] = system: lung carcinoma cells (A549); experiment: intracellular Ca^2+, Fluo-4, real time confocal microscopy; details: for effect of channel blocker on first, EGTA insensitive Ca^2+ peak in response to HAMLET: 30 minutes pretreatment
Experimental: To examine if HAMLET modulates ion channel activity in tumor cells, we first quantified changes in intracellular Ca^2+ and K^+. Lung carcinoma cells were first preloaded with the Fluo-4 Ca^2+ fluorophore Fluo-, exposed to HAMLET (35 μM) and examined by real time confocal microscopy for changes in fluorescence intensity (FIG. 1A). The Ca^2+ ionophore A23187, which acts as a Ca^2+ shuttle across cell membranes, was used as a positive control (Abbott et al., 1979, Antimicrobial Agents and Chemotherapy 16, 808-812).
To distinguish Ca^2+ mobilization from intracellular stores from the influx of extracellular Ca^2+, EGTA was then added to the cell medium. […] K^+ fluxes across tumor cell membranes were subsequently quantified under the same experimental conditions, using the fluorophore FLUXOR™, which fluoresces after thallium has entered cells through K^+ channels.
To further characterize ion channel activation by HAMLET, carcinoma cells were pretreated with defined channel blockers. Amiloride is a sodium channel inhibitor with effects on mechanosensitive channels, barium chloride (BaCl2) is a general K^+ channel inhibitor, gadolinium chloride (GdCl3) inhibits mechanosensitive channels, Ruthenium red is a general Ca^2+ inhibitor and tetrandrine inhibits large conductance, Ca^2+ activated K^+ channels. The carcinoma cells were preincubated with Fluo-4 as described above, pretreated with each of the channel inhibitors for 30 minutes, exposed to HAMLET (35 μM) and examined by real time confocal imaging. Furthermore, cells treated with EGTA were compared to cells with intact extracellular Ca^2+ levels, to distinguish the early peak from the subsequent influx of Ca^2+ (FIG. 1B, Table in FIG. 8).

[4] = system: A549 lung carcinoma cells; experiment: global transcriptional response, whole genome arrays (Affymetrix)
Experimental: For the microarray analysis with ion channel inhibitors, 200,000 A549 cells/well were allowed to adhere overnight on a 6-well plate. After 1 hour of HAMLET treatment, the cells were lysed and RNA was extracted using the RNeasy Mini Kit (QIAGEN). The samples were sent to AROS Applied Biotechnology (Århus, Denmark) for analysis. Data was preprocessed using RMA implemented in the free software packages “affy” as provided by R and Bioconductor (<www.r-project.org>). Differentially expressed genes were identified using empirically Bayes adjusted t-statistics and characterized using the Functional Annotation Clustering Tool in the Database for Annotation, Visualization and Integrated Discovery (DAVID), (Dennis et al., 2003 Genome Biology 4(5): P3) and Ingenuity Pathway Analysis (Ingenuity Systems). All microarray data were registered into NCBI's Gene Expression Omnibus (GEO) database (<www.ncbi.nlm.nih.gov/projects/geo>) with accession numbers GSE23772.
To understand the mechanisms of carcinoma cell death and the contribution of ion channel activation, the global transcriptional response to HAMLET was examined, using whole genome arrays. A549 lung carcinoma cells were exposed to HAMLET (21 μM) for one hour and cells pretreated with amiloride were compared to cells in medium alone. […] An unbiased global overview of transcription was obtained by performing a hierarchical clustering of the top 3000 genes by variance and was visualized in a heatmap (FIG. 2D and FIG. 13). Genes with empirical Bayes adjusted p-values <0.05 and log 2 fold changes >1 were considered differentially expressed and were functionally characterized using Database for Annotation, Visualization and Integrated Discovery, (Dennis et al., supra, 2003) and Ingenuity Pathway Analysis.
In total 12 RNA samples were generated (triplicate of control, oleic Acid, HAMLET, and oleate-treated) and hybridized to Affymetrix Whole Genome microarrays U219. […] For statistical analysis normalized data were linear model fitted and Empirical Bayesian analysis, coupled with p-value adjustment, performed.

[5] = Example 5, Affymetrix U219, adjusted p-value <0.05 and log 2-foldchange of 1

[Ba+2].[Cl-].[Cl-] [BaCl2, barium chloride]
effect of ion channel inhibitor on suppression of p-ERK1/2 phosphorylation by HAMLET [1]: reversed | effect of ion channel inhibitor on HAMLET-induced p38 phosphorylation [1]: inhibited | cells died after HAMLET [2]: 13% | effect of channel blocker on first, EGTA insensitive Ca^2+ peak in response to HAMLET ([3]; HAMLET 35 μM): inhibited

NC(N)=NC(=O)c1nc(Cl)c(N)nc1N [amiloride, 3,5-diamino-6-chloro-N-(diaminomethylene)pyrazine-2-carboxamide]
effect of ion channel inhibitor on suppression of p-ERK1/2 phosphorylation by HAMLET [1]: reversed | effect of ion channel inhibitor on HAMLET-induced p38 phosphorylation [1]: inhibited | cells died after HAMLET [2]: 8% | effect of channel blocker on first, EGTA insensitive Ca^2+ peak in response to HAMLET ([3]; HAMLET 35 μM): inhibited | effect of inhibitor alone on transcription [4]: no significant effect on transcription | number of differentially expressed genes in response to HAMLET in cells pretreated with inhibitor ([4]; HAMLET 21 μM, one hour): 52 genes

CCCCCCCC/C=C\CCCCCCCC(=O)[O-].[Na+] [oleate, sodium oleate]
phosphorylation of p38 [1]: phosphorylation of p38 | number of differentially expressed genes [4, 5]: 426 genes | global transcriptional response (heatmap, top 3000 genes by variance) ([4]; FIG. 7B): very similar transcriptional response

B1: HAMLET (protein, UniProt P00709 20-142, looked up)
Alpha-lactalbumin: KQFTKCELSQLLKDIDGYGGIALPELICTMFHTSGYDTQAIVENNESTEYGLFQISNKLWCKSSQVPQSRNICDISCDKFLDDDITDDIMCAKKILDIKGIDYWLAHKALCTEKLEQWLCEKL
modifications: oleic acid complex
ERK1/2 phosphorylation ([1]; 30 minutes): loss of ERK1/2 phosphorylation | p38α and HSP27 phosphorylation ([1]; 30 minutes, phospho-MAPK antibody arrays): phosphorylating p38α and HSP27 | phosphorylation of p38 [1]: dose- and time-dependent | cells died after HAMLET [2]: 44% | cells involved in Ca^2+ response [3]: about 50% | increase in intracellular Ca^2+ levels relative to ionophore ([3]; HAMLET 35 μM): 31 % of the ionophore | intracellular Ca^2+ response ([3]; HAMLET 35 μM): rapid, step-wise increase in intracellular Ca^2+ | second Ca^2+ peak ([3]; HAMLET 35 μM): about 100 seconds | start of increase in intracellular Ca^2+ ([3]; HAMLET 35 μM): about 30 seconds | number of differentially expressed genes [4, 5]: 336 genes | number of differentially expressed genes ([4]; HAMLET 21 μM, one hour, no inhibitor, adjusted p-values <0.05, log 2 fold changes >1): 336 genes
